Assay results as given in the NIST ThermoML archive (doi:10.1016/j.tca.2016.03.026).

How the values were obtained:
[1] = refractive index (Na D-line) (dimensionless); xn = mol fraction of the nth substance listed; details: 100 kPa, Liquid, Standard Abbe refractometry
[2] = xn = mol fraction of the nth substance listed; details: 100 kPa, Liquid; for speed of sound: Frequency=3 MHz, Sing-around technique in a fixed-path interferometer; for mass density: Vibrating tube method

CCCCCCCC[n+]1ccn(C)c1.F[B-](F)(F)F [1-methyl-3-octylimidazolium tetrafluoroborate] + CCCCO
Details | mass density, 298.15 K [kg/m3] | mass density, 308.15 K [kg/m3] | mass density, 318.15 K [kg/m3] | refractive index, 298.15 K | refractive index, 308.15 K | refractive index, 318.15 K | speed of sound, 298.15 K [m/s] | speed of sound, 308.15 K [m/s] | speed of sound, 318.15 K [m/s]
[1], x1 = 0.1027 | – | – | – | 1.40763 | 1.40492 | 1.40232 | – | – | –
[1], x1 = 0.2022 | – | – | – | 1.41502 | 1.41254 | 1.40964 | – | – | –
[1], x1 = 0.3056 | – | – | – | 1.41903 | 1.41692 | 1.41438 | – | – | –
[1], x1 = 0.3989 | – | – | – | 1.42183 | 1.41956 | 1.41736 | – | – | –
[1], x1 = 0.5062 | – | – | – | 1.42405 | 1.42175 | 1.41965 | – | – | –
[1], x1 = 0.6018 | – | – | – | 1.42594 | 1.42362 | 1.42126 | – | – | –
[1], x1 = 0.6978 | – | – | – | 1.42791 | 1.42542 | 1.42301 | – | – | –
[1], x1 = 0.8014 | – | – | – | 1.42974 | 1.42732 | 1.42444 | – | – | –
[1], x1 = 0.9062 | – | – | – | 1.43151 | 1.42861 | 1.42615 | – | – | –
[1], x1 = 1 | – | – | – | 1.43253 | 1.42984 | 1.42715 | – | – | –
[2], x1 = 0.1027 | 878.23 | 870.62 | 862.9 | – | – | – | 1273.2 | 1240.8 | 1206.7
[2], x1 = 0.2022 | 929.75 | 922.28 | 914.69 | – | – | – | 1306.5 | 1274.7 | 1241.8
[2], x1 = 0.3056 | 970.63 | 963.3 | 955.89 | – | – | – | 1339.7 | 1308.7 | 1276.3
[2], x1 = 0.3989 | 999.88 | 992.71 | 985.42 | – | – | – | 1366.1 | 1336 | 1304.2
[2], x1 = 0.5062 | 1027.17 | 1020.16 | 1013 | – | – | – | 1392.8 | 1363.2 | 1333.3
[2], x1 = 0.6018 | 1047.22 | 1040.32 | 1033.31 | – | – | – | 1413.7 | 1384.8 | 1356
[2], x1 = 0.6978 | 1064.35 | 1057.54 | 1050.61 | – | – | – | 1431.9 | 1403.8 | 1377
[2], x1 = 0.8014 | 1080.2 | 1073.47 | 1066.62 | – | – | – | 1450.2 | 1423 | 1397.2
[2], x1 = 0.9062 | 1094.06 | 1087.36 | 1080.57 | – | – | – | 1468.3 | 1441.6 | 1416.3
[2], x1 = 1 | 1105.02 | 1098.32 | 1091.54 | – | – | – | 1485.1 | 1458.5 | 1433.2

CCCCCCCC[n+]1ccn(C)c1.F[B-](F)(F)F [1-methyl-3-octylimidazolium tetrafluoroborate] + CC(C)(C)O
Details | mass density, 298.15 K [kg/m3] | mass density, 308.15 K [kg/m3] | mass density, 318.15 K [kg/m3] | refractive index, 298.15 K | refractive index, 308.15 K | refractive index, 318.15 K | speed of sound, 298.15 K [m/s] | speed of sound, 308.15 K [m/s] | speed of sound, 318.15 K [m/s]
[1], x1 = 0.1017 | – | – | – | 1.40022 | 1.39681 | 1.39317 | – | – | –
[1], x1 = 0.1988 | – | – | – | 1.40992 | 1.40684 | 1.40405 | – | – | –
[1], x1 = 0.3011 | – | – | – | 1.41591 | 1.41342 | 1.41058 | – | – | –
[1], x1 = 0.4052 | – | – | – | 1.41962 | 1.41719 | 1.41452 | – | – | –
[1], x1 = 0.5002 | – | – | – | 1.42177 | 1.41911 | 1.41635 | – | – | –
[1], x1 = 0.604 | – | – | – | 1.42411 | 1.42168 | 1.41871 | – | – | –
[1], x1 = 0.7024 | – | – | – | 1.42628 | 1.42348 | 1.42104 | – | – | –
[1], x1 = 0.7992 | – | – | – | 1.42805 | 1.42562 | 1.42272 | – | – | –
[1], x1 = 0.9014 | – | – | – | 1.43025 | 1.42769 | 1.42513 | – | – | –
[1], x1 = 1 | – | – | – | 1.43253 | 1.42984 | 1.42715 | – | – | –
[2], x1 = 0.1017 | 858.69 | 849.64 | 840.32 | – | – | – | 1188.3 | 1157.2 | 1119.1
[2], x1 = 0.1988 | 914.56 | 906 | 897.39 | – | – | – | 1254.2 | 1221.6 | 1190.2
[2], x1 = 0.3011 | 959.49 | 951.41 | 943.34 | – | – | – | 1309.4 | 1275.6 | 1246.5
[2], x1 = 0.4052 | 994.81 | 987.25 | 979.38 | – | – | – | 1351.5 | 1322.2 | 1293.3
[2], x1 = 0.5002 | 1020.68 | 1013.4 | 1005.9 | – | – | – | 1382.5 | 1353.6 | 1324.9
[2], x1 = 0.604 | 1044.05 | 1037.31 | 1029.92 | – | – | – | 1410.1 | 1383.3 | 1354.5
[2], x1 = 0.7024 | 1062.66 | 1056.01 | 1049.1 | – | – | – | 1433.4 | 1409 | 1380.2
[2], x1 = 0.7992 | 1078.39 | 1071.8 | 1064.98 | – | – | – | 1451.3 | 1428.2 | 1402.2
[2], x1 = 0.9014 | 1092.82 | 1086.23 | 1079.48 | – | – | – | 1467.6 | 1443.3 | 1417.2
[2], x1 = 1 | 1105.02 | 1098.32 | 1091.54 | – | – | – | 1485.1 | 1458.5 | 1433.2
